Laboratory results published in ChEMBL document CHEMBL3785085, “Pharmacokinetics of single and multiple doses of phenytoin in man” (Eur J Clin Pharmacol, 1974).

Columns and labels:
[1] = Half life in healthy human volunteer (5 volunteers) at 5 mg/kg, iv administered as single dose through infusion by gas chromatographic method; type: ADME, organism-based; details: in vivo
[2] = Apparent volume of distribution (area) in healthy human volunteer (5 volunteers) at 5 mg/kg, iv administered as single dose through infusion by gas chromatographic method; type: ADME, organism-based; details: in vivo, read-out: Vd(app)
Plasma = assay: Plasma concentration at steady state in healthy human volunteer (5 volunteers) at 2 mg/kg, po bid administered for 12 days by gas chromatographic method; type: ADME, organism-based; details: in vivo, 288 h
[3] = Total plasma clearance in healthy human volunteer (5 volunteers) at 5 mg/kg, iv administered as single dose by gas chromatographic method; type: ADME, organism-based
[4] = Drug uptake in healthy human volunteer (5 volunteers) at 5 mg/kg, iv administered as single dose through infusion after 0.5 hrs by gas chromatographic method; type: ADME, organism-based; details: in vivo, read-out: Drug uptake
[5] = Half life in healthy human volunteer (5 volunteers) at 5 mg/kg, po administered as single dose by gas chromatographic method; type: ADME, organism-based; details: in vivo
Homo sapiens = assay: Anticonvulsant activity in po dose patient assessed as compound level in plasma required to decrease epileptic seizure; type: functional
[6] = Half life at post steady state in healthy human volunteer (5 volunteers) at 2 mg/kg, po bid administered for 12 days by gas chromatographic method; type: ADME, organism-based; details: in vivo
[7] = Half life during steady state in healthy human volunteer (5 volunteers) at 2 mg/kg, po bid administered for 12 days by gas chromatographic method; type: ADME, organism-based; details: in vivo
[8] = Cmax in healthy human volunteer (5 volunteers) at 5 mg/kg, po administered as single dose by gas chromatographic method; type: ADME, organism-based; set-up: dose 5 mg/kg, route oral; details: in vivo

`O=C1N=C([O-])NC1(c1ccccc1)c1ccccc1.[Na+]` [PHENYTOIN SODIUM] gave a half-life [1] of 14.5 h, a Vd [2] of 0.52 L/kg and a Cpss (Plasma) of 5.3 µg/mL. For the same compound, the clearance [3] was 0.367 mL/min/kg, the concentration at 0.5 h [4] was 8400 ng/mL and the half-life [5] was 16.6 h. The MEC (Homo sapiens) was 10 µg/mL, the half-life [6] was 15.9 h and the half-life [7] was 21.3 h. For the same compound, the Cmax [8] was 2600 ng/mL.
